{
  "source": "paper PMC8413292",
  "about": "“Small-molecule polymerase inhibitor protects non-human primates from measles and reduces shedding” (Nature Communications, 2021)",
  "test_system": "MV/FrankfurtMain.DEU/17.11 (genotype D8)",
  "experiment": "Rectal temperature of MeV-infected squirrel monkeys",
  "type": "in vivo, squirrel monkeys (Saimiri sciureus)",
  "details": "for Temperature: individual animals",
  "description": "All animal experiments were carried out in compliance with the regulations of German animal protection laws and authorized by the Regierungspräsidium Darmstadt, Germany (Dezernat V54 – Veterinärwesen und Verbraucherschutz, Hilpertstrasse 31, 64295 Darmstadt). Adult male and female squirrel monkeys (Saimiri sciureus) were obtained from BioPRIM, 31450 Baziege, or CNRS 0846 Primatologie, 13790 Rousset, France. Each experimental group was housed in a separate room, and animals of the same sex were caged together within the respective groups. For the single-dose pharmacokinetic experiment, animals were anesthetized, and the drug was given through a stomach tube at a concentration of 50 mg/kg bodyweight. Blood samples were collected after 15, 30, and 60 min, and 2, 3, 6, and 24 h. For efficacy assessment, groups of 6 animals were left untreated or treated with 50 mg/kg of ERDRP-0519 twice daily for two weeks, starting either 12 h before or 3 or 7 days after intranasal infection with 10^6 TCID50 of MV/FrankfurtMain.DEU/17.11. Clinical signs, rectal temperature, and weight were recorded daily, and throat swabs and blood samples were collected before infection and twice weekly thereafter. On day 21 post-infection, the animals were euthanized, necropsied, and samples were collected for histological analysis.",
  "note": "“And” between values parts separate entries of the source, which are not always exact repeats. Identical values can stand only once.",
  "data": [
    {"smiles": "Cn1nc(C(F)(F)F)cc1C(=O)Nc1ccc(S(=O)(=O)N2CCCC[C@H]2CCN2CCOCC2)cc1", "note": "[ERDRP-0519]", "values": [
      {"measurement": "Temperature, Mean Diff, untreated vs. prophylactic", "setting": "Row 1 (day 0)", "value": -1.35},
      {"measurement": "Temperature, Mean Diff, untreated vs. therapeutic (d3)", "setting": "Row 1 (day 0)", "value": -0.9667},
      {"measurement": "Temperature, Mean Diff, untreated vs. therapeutic (d7)", "setting": "Row 1 (day 0)", "value": -0.7167},
      {"measurement": "Temperature, Mean Diff, untreated vs. prophylactic", "setting": "Row 2 (day 3)", "value": 0.5833},
      {"measurement": "Temperature, Mean Diff, untreated vs. therapeutic (d3)", "setting": "Row 2 (day 3)", "value": -0.05},
      {"measurement": "Temperature, Mean Diff, untreated vs. therapeutic (d7)", "setting": "Row 2 (day 3)", "value": -0.03333},
      {"measurement": "Temperature, Mean Diff, untreated vs. prophylactic", "setting": "Row 3 (day 7)", "value": 1.2},
      {"measurement": "Temperature, Mean Diff, untreated vs. therapeutic (d3)", "setting": "Row 3 (day 7)", "value": 0.5167},
      {"measurement": "Temperature, Mean Diff, untreated vs. therapeutic (d7)", "setting": "Row 3 (day 7)", "value": 0.4333},
      {"measurement": "Temperature, Mean Diff, untreated vs. prophylactic", "setting": "Row 4 (day 10)", "value": 0.5333},
      {"measurement": "Temperature, Mean Diff, untreated vs. therapeutic (d3)", "setting": "Row 4 (day 10)", "value": 0.3667},
      {"measurement": "Temperature, Mean Diff, untreated vs. therapeutic (d7)", "setting": "Row 4 (day 10)", "value": 0.5},
      {"measurement": "Temperature, Mean Diff, untreated vs. prophylactic", "setting": "Row 5 (day 14)", "value": -0.25},
      {"measurement": "Temperature, Mean Diff, untreated vs. therapeutic (d3)", "setting": "Row 5 (day 14)", "value": 0.4},
      {"measurement": "Temperature, Mean Diff, untreated vs. therapeutic (d7)", "setting": "Row 5 (day 14)", "value": 0.3},
      {"measurement": "Temperature, Mean Diff, untreated vs. prophylactic", "setting": "Row 6 (day 17)", "value": 0.1667},
      {"measurement": "Temperature, Mean Diff, untreated vs. therapeutic (d3)", "setting": "Row 6 (day 17)", "value": 0.24},
      {"measurement": "Temperature, Mean Diff, untreated vs. therapeutic (d7)", "setting": "Row 6 (day 17)", "value": 0.2333},
      {"measurement": "Temperature, Mean Diff, untreated vs. prophylactic", "setting": "Row 7 (day 21)", "value": -0.3167},
      {"measurement": "Temperature, Mean Diff, untreated vs. therapeutic (d3)", "setting": "Row 7 (day 21)", "value": -0.1},
      {"measurement": "Temperature, Mean Diff, untreated vs. therapeutic (d7)", "setting": "Row 7 (day 21)", "value": -0.1167},
      {"measurement": "Temperature", "setting": "prophylactic group, day 0", "value": "38.9 °C and 38.6 °C and 38.7 °C (2×) and 39.3 °C and 38.2 °C"},
      {"measurement": "Temperature", "setting": "prophylactic group, day 3", "value": "38.6 °C and 38.5 °C and 39.1 °C and 39 °C and 37.5 °C and 38.8 °C"},
      {"measurement": "Temperature", "setting": "prophylactic group, day 7", "value": "39.3 °C (2×) and 38.5 °C and 38.7 °C and 38.8 °C and 37.3 °C"},
      {"measurement": "Temperature", "setting": "prophylactic group, day 10", "value": "39.8 °C and 39.3 °C (2×) and 38.9 °C and 38.3 °C and 39.7 °C"},
      {"measurement": "Temperature", "setting": "prophylactic group, day 14", "value": "40.1 °C and 40.5 °C (2×) and 39.6 °C (2×) and 39.1 °C"},
      {"measurement": "Temperature", "setting": "prophylactic group, day 17", "value": "39.7 °C (2×) and 39.8 °C and 39.3 °C and 38.7 °C and 40 °C"},
      {"measurement": "Temperature", "setting": "prophylactic group, day 21", "value": "39.5 °C (2×) and 39.7 °C (2×) and 39.1 °C and 39.6 °C"},
      {"measurement": "Temperature, group mean (Mean 2)", "setting": "prophylactic, Row 1 (day 0)", "value": 38.73},
      {"measurement": "Temperature, group mean (Mean 2)", "setting": "prophylactic, Row 2 (day 3)", "value": 38.58},
      {"measurement": "Temperature, group mean (Mean 2)", "setting": "prophylactic, Row 3 (day 7)", "value": 38.65},
      {"measurement": "Temperature, group mean (Mean 2)", "setting": "prophylactic, Row 4 (day 10)", "value": 39.22},
      {"measurement": "Temperature, group mean (Mean 2)", "setting": "prophylactic, Row 5 (day 14)", "value": 39.9},
      {"measurement": "Temperature, group mean (Mean 2)", "setting": "prophylactic, Row 6 (day 17)", "value": 39.53},
      {"measurement": "Temperature, group mean (Mean 2)", "setting": "prophylactic, Row 7 (day 21)", "value": 39.52},
      {"measurement": "mean temperatures in the distinct groups", "setting": "remained within the pre-infection range, all groups", "value": "less than 40 °C"},
      {"measurement": "Temperature", "setting": "therapeutic (d3) group, day 0", "value": "37.9 °C and 38.1 °C and 37.8 °C and 39.1 °C and 38.4 °C and 38.8 °C"},
      {"measurement": "Temperature", "setting": "therapeutic (d3) group, day 3", "value": "39.3 °C and 38.3 °C and 39.2 °C and 40 °C and 39.4 °C and 39.1 °C"},
      {"measurement": "Temperature", "setting": "therapeutic (d3) group, day 7", "value": "38.9 °C and 38.7 °C and 39.4 °C (2×) and 39.8 °C (2×)"},
      {"measurement": "Temperature", "setting": "therapeutic (d3) group, day 10", "value": "38.4 °C and 39 °C and 39.3 °C and 39.6 °C and 39.7 °C and 40.3 °C"},
      {"measurement": "Temperature", "setting": "therapeutic (d3) group, day 14", "value": "39.1 °C (2×) and 38.7 °C and 39.5 °C (2×) and 39.6 °C"},
      {"measurement": "Temperature", "setting": "therapeutic (d3) group, day 17", "value": "39.1 °C and 39.5 °C (2×) and 39.8 °C and 39.4 °C"},
      {"measurement": "Temperature", "setting": "therapeutic (d3) group, day 21", "value": "39.1 °C and 38.8 °C (2×) and 39.8 °C and 40 °C"},
      {"measurement": "Temperature, group mean (Mean 2)", "setting": "therapeutic (d3), Row 1 (day 0)", "value": 38.35},
      {"measurement": "Temperature, group mean (Mean 2)", "setting": "therapeutic (d3), Row 2 (day 3)", "value": 39.22},
      {"measurement": "Temperature, group mean (Mean 2)", "setting": "therapeutic (d3), Row 3 (day 7)", "value": 39.33},
      {"measurement": "Temperature, group mean (Mean 2)", "setting": "therapeutic (d3), Row 4 (day 10)", "value": 39.38},
      {"measurement": "Temperature, group mean (Mean 2)", "setting": "therapeutic (d3), Row 5 (day 14)", "value": 39.25},
      {"measurement": "Temperature, group mean (Mean 2)", "setting": "therapeutic (d3), Row 6 (day 17), N = 5", "value": 39.46}
    ]}
  ]
}
